Test results taken from paper PMC10443802, “Targeting a xenobiotic transporter to ameliorate vincristine-induced sensory neuropathy” (JCI Insight, 2023).
Values joined by “and” are separate entries in the source; they are usually repeats but may differ in a detail not shown here. Equal values may be shown once.

How the values were obtained:
hOATP1B3 = molecular target: T1, hOATP1B3 (Homo sapiens, UniProt Q9NPD5); assay: Nilotinib uptake in HEK293 cells overexpressing hOATP1B3; format: in vitro ADME; conditions: HEK293 cells overexpressing hOATP1B3 vs vector control
T1 sequence (Q9NPD5 1-702): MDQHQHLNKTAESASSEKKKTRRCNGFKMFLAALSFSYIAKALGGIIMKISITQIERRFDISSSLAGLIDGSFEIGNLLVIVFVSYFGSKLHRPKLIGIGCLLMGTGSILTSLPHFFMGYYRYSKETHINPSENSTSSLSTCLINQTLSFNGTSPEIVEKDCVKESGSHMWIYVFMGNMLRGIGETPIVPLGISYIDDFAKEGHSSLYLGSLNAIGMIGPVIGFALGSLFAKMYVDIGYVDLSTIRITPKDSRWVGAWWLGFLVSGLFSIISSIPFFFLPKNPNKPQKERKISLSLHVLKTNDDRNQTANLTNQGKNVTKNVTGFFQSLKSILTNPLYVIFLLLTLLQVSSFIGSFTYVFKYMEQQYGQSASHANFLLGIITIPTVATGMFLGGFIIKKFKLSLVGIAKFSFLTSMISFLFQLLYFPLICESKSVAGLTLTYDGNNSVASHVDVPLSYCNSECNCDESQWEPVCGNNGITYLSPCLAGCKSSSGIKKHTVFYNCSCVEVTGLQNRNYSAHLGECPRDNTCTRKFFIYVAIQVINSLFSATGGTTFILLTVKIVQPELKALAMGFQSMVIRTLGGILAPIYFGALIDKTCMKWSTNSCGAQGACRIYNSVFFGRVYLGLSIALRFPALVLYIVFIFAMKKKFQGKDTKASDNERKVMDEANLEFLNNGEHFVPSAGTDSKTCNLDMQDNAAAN

mMATE1 = mMATE1 (Mus musculus, UniProt Q8K0H1); assay: Substrate uptake in HEK293 cells overexpressing mMATE1; conditions: HEK293 mouse MATE1
Description: on OATP1B1, OATP1B3, or OATP1B2 function was evaluated using EβG (Axxora LLC) as the
transfected with transporters of interest, including hOAT1, hOAT3, hOAT4, hOATP1A2, hOATP3A1, hOATP4A1, hOATP5A1, hOATP1C1, hOATP1B1, hOATP1B3, hOATP2B1, hOCT1, hOCT2, hOCTN1, hOCTN2, hASBT, hNTCP, hNPT1, hMATE1, hOSTα/β, hPEPT1, hPEPT2, rOatp1a1, rOatp1a4, rOatp1a5, rOatp1b2, rNtcp, rAsbt, rOat1, and rOct1. Cells were transfected with expression plasmid or vector control lacking any insert using Lipofectin reagent (Invitrogen). Sixteen hours thereafter, cells were washed with transport media (OPTIMEM, Invitrogen) and treated with radiolabeled drug. At various time intervals, cells were washed three times with ice-cold PBS and then lysed with 1% sodium dodecyl sulfate. The cellular radioactivity was quantified by liquid scintillation counting as described above. Similar analyses were performed in HEK293 cells transfected with hOATP1A2, hOATP1C1, mMATE1, and hMATE1, with cells seeded in poly lysine pre-coated 12-well plates. For hOATP1A2 and hOATP1C1, transient transfections were performed with either an empty vector, OATP1A2, or OATP1C1 using Lipofectamine 2000 according to the manufacturers protocol (Invitrogen).

hOATP4A1 = hOATP4A1 (Homo sapiens, UniProt Q96BD0); assay: Vincristine uptake screen, HeLa cells overexpressing hOATP4A1; format: in vitro ADME
Description: (§1) Relative uptake is expressed as percentage change compared with empty vector controls (n = 4–14 per group). […] Human OATP1B1 and OATP1B3 transporter–overexpressed cells were used as positive controls; empty vector controls were used as the negative control. […] Mechanical allodynia (C), thermal hyperalgesia (D), and sciatic nerve maximal action potential amplitudes (E) are expressed as percentage change relative to baseline values (n = 6–8 per group). Statistical analysis was performed using a 2-way ANOVA with Bonferroni’s post hoc test. **P < 0.01, ***P < 0.001, ****P < 0.0001, compared with baseline values. […] Data are shown as mean ± SEM. […]
(§2) transfected with transporters of interest, including hOAT1, hOAT3, hOAT4, hOATP1A2, hOATP3A1, hOATP4A1, hOATP5A1, hOATP1C1, hOATP1B1, hOATP1B3, hOATP2B1, hOCT1, hOCT2, hOCTN1, hOCTN2, hASBT, hNTCP, hNPT1, hMATE1, hOSTα/β, hPEPT1, hPEPT2, rOatp1a1, rOatp1a4, rOatp1a5, rOatp1b2, rNtcp, rAsbt, rOat1, and rOct1. Cells were transfected with expression plasmid or vector control lacking any insert using Lipofectin reagent (Invitrogen). Sixteen hours thereafter, cells were washed with transport media (OPTIMEM, Invitrogen) and treated with radiolabeled drug. […] The cellular radioactivity was quantified by liquid scintillation counting as described above. […]

rASBT = rASBT (Rattus norvegicus, UniProt Q62633); assay: Vincristine uptake screen, HeLa cells overexpressing rASBT; format: in vitro ADME
Description: as §1, §2

hOATP4A1, sequence (Q96BD0 whole entry): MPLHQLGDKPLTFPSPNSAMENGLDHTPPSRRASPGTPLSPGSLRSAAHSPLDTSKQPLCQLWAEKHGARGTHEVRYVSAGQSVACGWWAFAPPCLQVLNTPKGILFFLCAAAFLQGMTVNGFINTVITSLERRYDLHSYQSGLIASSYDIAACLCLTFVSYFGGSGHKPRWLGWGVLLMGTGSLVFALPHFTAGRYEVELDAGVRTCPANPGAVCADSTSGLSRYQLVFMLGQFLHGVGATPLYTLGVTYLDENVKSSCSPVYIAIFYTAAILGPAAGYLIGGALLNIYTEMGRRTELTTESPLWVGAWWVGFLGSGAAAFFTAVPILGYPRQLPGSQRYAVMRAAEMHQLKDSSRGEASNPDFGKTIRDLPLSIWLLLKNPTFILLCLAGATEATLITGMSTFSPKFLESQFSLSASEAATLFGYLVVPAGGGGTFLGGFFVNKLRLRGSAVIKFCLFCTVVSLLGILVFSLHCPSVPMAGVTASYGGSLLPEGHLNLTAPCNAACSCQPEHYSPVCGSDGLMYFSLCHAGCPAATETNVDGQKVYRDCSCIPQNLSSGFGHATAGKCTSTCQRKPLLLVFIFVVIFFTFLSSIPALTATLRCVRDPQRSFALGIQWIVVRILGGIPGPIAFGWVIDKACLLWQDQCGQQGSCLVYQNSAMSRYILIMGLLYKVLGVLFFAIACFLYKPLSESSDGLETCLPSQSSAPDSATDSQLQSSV
rASBT, sequence (Q62633 whole entry): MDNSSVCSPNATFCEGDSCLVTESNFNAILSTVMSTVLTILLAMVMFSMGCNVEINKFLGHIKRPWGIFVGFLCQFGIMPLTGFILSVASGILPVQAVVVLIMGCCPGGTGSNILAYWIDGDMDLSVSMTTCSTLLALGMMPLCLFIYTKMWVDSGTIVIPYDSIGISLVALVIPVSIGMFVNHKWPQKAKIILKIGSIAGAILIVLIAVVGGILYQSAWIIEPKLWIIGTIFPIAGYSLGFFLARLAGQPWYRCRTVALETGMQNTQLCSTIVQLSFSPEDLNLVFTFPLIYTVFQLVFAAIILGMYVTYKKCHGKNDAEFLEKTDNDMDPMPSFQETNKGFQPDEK
mMATE1, sequence (Q8K0H1 whole entry): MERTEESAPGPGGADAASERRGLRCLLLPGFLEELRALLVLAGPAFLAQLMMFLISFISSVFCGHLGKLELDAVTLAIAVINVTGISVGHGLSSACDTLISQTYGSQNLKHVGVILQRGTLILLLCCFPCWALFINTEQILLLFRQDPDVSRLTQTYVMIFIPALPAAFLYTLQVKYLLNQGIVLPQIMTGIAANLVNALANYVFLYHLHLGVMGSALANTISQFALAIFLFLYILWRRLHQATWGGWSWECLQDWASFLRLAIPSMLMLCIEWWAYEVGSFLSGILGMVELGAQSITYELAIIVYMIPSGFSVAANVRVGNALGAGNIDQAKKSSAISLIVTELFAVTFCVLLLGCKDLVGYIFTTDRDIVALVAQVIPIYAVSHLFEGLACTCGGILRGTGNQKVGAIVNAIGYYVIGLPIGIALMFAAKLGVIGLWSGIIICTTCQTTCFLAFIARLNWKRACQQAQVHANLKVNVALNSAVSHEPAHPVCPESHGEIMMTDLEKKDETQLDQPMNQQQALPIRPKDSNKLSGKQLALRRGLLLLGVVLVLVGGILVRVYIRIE

| Structure (SMILES) | Nilotinib uptake (% of control) (hOATP1B3) | Contribution of transporter to cellular uptake of vincristine (mMATE1) | Vincristine uptake (% of vector control) (hOATP4A1) | Vincristine uptake (% of vector control) (rASBT) |
| --- | --- | --- | --- | --- |
| Cc1cn(-c2cc(NC(=O)c3ccc(C)c(Nc4nccc(-c5cccnc5)n4)c3)cc(C(F)(F)F)c2)cn1 [Nilotinib, nilotinib] | 123.521 % of control and 118.661 % of control and 108.968 % of control |  |  |  |
| CC[C@]1(O)C[C@H]2CN(CCc3c([nH]c4ccccc34)[C@@](C(=O)OC)(c3cc4c(cc3OC)N(C=O)[C@H]3[C@@](O)(C(=O)OC)[C@H](OC(C)=O)[C@]5(CC)C=CCN6CC[C@]43[C@@H]65)C2)C1 [Vincristine, vincristine] |  | do not appreciably contribute to the cellular uptake of vincristine | 134.00 % of vector control and 105.00 % of vector control and 130.00 % of vector control and 116.00 % of vector control and 108.00 % of vector control and 117.00 % of vector control and 144.00 % of vector control and 140.00 % of vector control | 95.00 % of vector control and 78.00 % of vector control and 81.00 % of vector control and 90.00 % of vector control and 114.00 % of vector control and 85.00 % of vector control and 118.00 % of vector control |
